Measured values taken from patent US20130129656A1, “"GREEN" DIESTER AMINES AND PERSONAL CARE PRODUCTS” (CRODA, INC., priority 2010, published 2013).

Columns and labels:
[1] = Wet combing evaluation of lotions (combing force reduction)
Method: Lotions with and without Example 3 Quat were prepared and evaluated for combing force reduction.

daphnia magna = assay: Aquatic toxicity via method OECD 202 (Daphnia sp. Acute Immobilization Test); assay type: in vivo; details: OECD 202, daphnia magna
Method: In some embodiments, the compounds of the present invention are believed to have low aquatic toxicities. […] […] The testing methodology is described in “OECD Guideline for Testing of Chemicals,” section 202, the disclosure of which is incorporated by reference.
(§1) Quat from example 3 was tested for biodegradability via method OECD 301B and Aquatic Toxicity via method OECD 202.

[2] = Biodegradability via method OECD 301B; details: after 29 days
Source text: In some embodiments, the compounds of the present invention are biodegradable as provided by standardized OECD 301B testing. The testing methodology is described in the “OECD Guideline for Testing Chemicals,” section 301, the disclosure of which is incorporated by reference. Specifically, the compounds of the present invention showing a biodegradability of at least about 50% according to the OECD 301B testing method. In some embodiments, the compounds of the present invention have a biodegradability of between about 50% to about 81% according to the OECD 301B testing method.
as §1

[3] = Warehouse storage stability of flaked samples in a stability oven at 95° F; assay type: physicochemical; details: flaked sample, stability oven set at 95° F, after 8 weeks
Method: The diester compositions may be blended with, for example, alkylamidopropyl dimethylamines, such as Incromine BD supplied by Croda Inc., to yield a waxy flakeable or pastillatable composition with improved high temperature warehouse storage stability. Stability in this case being defined as resistance of the waxy particles from fusing together at elevated warehouse storage temperatures of about 95° F. Additional information on flakeability/pastillatability can be found in U.S. Pat. No. 6,638,497, the disclosure of which is hereby incorporated by reference herein.
In some embodiments, it is desirable that the diesters of the claimed invention be either liquids or waxy solids in pastille form at room temperature for ease of use. […] By adding behenamidopropydimethylamine, the high temperature storage stability of the diester was increased, allowing for it to be warehoused or transported in conditions were the temperature can exceed 95° F. without the pastilles fusing together.

[4] = wet combing, lotion with 1.5 % Example 3 Quat, average of 10 tresses

With “Methosulfate QUAT of PPG-6 N-Methyldiethanolamine Di-Behenate [Example 3]” the “Conditioning (in words)” value ([1]; lotion with the quat, versus lotion without) was “improved conditioning”, the “% Change of Combing Force (gmf)” value [1, 4] was −84.62% and the “% Change of Total Work Done (Joules)” value [1, 4] was −88.76%. For the same substance, the “48 hour EC50 (aquatic toxicity)” value (daphnia magna) was greater than 100 µg/mL, the Biodegraded [2] was 67% and the “Warehouse storage stability (state of flakes)” value [3] was “fused together”.
